Measured values: patent US8263749B2, “Imatinib immunoassay” (Saladax Biomedical Inc., priority 2009, dated 2012)

Columns and labels:
Assay type in all cases: binding, mouse
[1] = tested on: polyclonal antibodies to imatinib (Example 8a); test: Indirect competitive microtiter plate immunoassay (ELISA), cross-reactivity with polyclonal antibodies to imatinib; settings: for Cross-reactivity of competitive immunoassay: ratio of IC50 imatinib to IC50 analyte
[2] = tested on: monoclonal antibody 9F2-4-29 to imatinib; test: Indirect competitive microtiter plate immunoassay (ELISA), cross-reactivity with monoclonal antibody 9F2-4-29; settings: monoclonal antibody number 9F2-4-29; ratio of IC50 imatinib to IC50 analyte
Description: (§1) Mice from example 8a that were immunized with imatinib-KLH prepared in 6b were used to produce monoclonal antibodies. For monoclonal antibodies starting three days before the fusion, the mice were injected i.p. with 400 μg (3 days before fusion), 200 μg (2 days before fusion), and 200 μg (1 day before fusion) of imatinib-KLH in PSS/DMSO prepared in example 6b. Spleen cells were isolated from the selected mice and fused with 2×10^7 SP2/0 cells with 50% polyethylene glycol 1500 according to the method of Coligan, J. E. et al., eds., Current Protocols in Immunology, 2.5.1-2.5.8, (1992), Wiley & Sons, NY. The fused cells were plated on ten 96-well plates in DMEM/F12 supplemented with 20% FetalClone I, 2% L-glutamine (100 mM) and 2% 50× HAT. Two to three weeks later, the hybridoma supernatant was assayed for the presence of anti-imatinib antibodies by ELISA (as in example fob). […] Clones positive by ELISA were subcloned twice by limiting dilution according to the method disclosed in Coligan, J. E. et al., eds., Current Protocols in Immunology, 2.5.8-2.5.17, (1992), Wiley & Sons, NY. […] These monoclonal antibodies were tested for imatinib binding and cross-reactivity to a major imatinib metabolite, N-desmethyl imatinib, by indirect competitive microtiter plate assay as described in example 11. […]

[3] = tested on: monoclonal antibody 9F2-4-31 to imatinib; test: Indirect competitive microtiter plate immunoassay (ELISA), cross-reactivity with monoclonal antibody 9F2-4-31; settings: monoclonal antibody number 9F2-4-31; ratio of IC50 imatinib to IC50 analyte
Description: as §1

[4] = tested on: selected monoclonal antibodies to imatinib (Example 8b); test: Indirect competitive microtiter plate immunoassay (ELISA), cross-reactivity with selected monoclonal antibodies; settings: measured with selected monoclonal antibodies
Description: Mice from example 8a that were immunized with imatinib-KLH prepared in 6b were used to produce monoclonal antibodies. For monoclonal antibodies starting three days before the fusion, the mice were injected i.p. with 400 μg (3 days before fusion), 200 μg (2 days before fusion), and 200 μg (1 day before fusion) of imatinib-KLH in PSS/DMSO prepared in example 6b. Spleen cells were isolated from the selected mice and fused with 2×10^7 SP2/0 cells with 50% polyethylene glycol 1500 according to the method of Coligan, J. E. et al., eds., Current Protocols in Immunology, 2.5.1-2.5.8, (1992), Wiley & Sons, NY. The fused cells were plated on ten 96-well plates in DMEM/F12 supplemented with 20% FetalClone I, 2% L-glutamine (100 mM) and 2% 50× HAT. Two to three weeks later, the hybridoma supernatant was assayed for the presence of anti-imatinib antibodies by ELISA (as in example fob). Cells from the wells that gave positive ELISA results (example lob) were expanded to 24 well plates. Clones positive by ELISA were subcloned twice by limiting dilution according to the method disclosed in Coligan, J. E. et al., eds., Current Protocols in Immunology, 2.5.8-2.5.17, (1992), Wiley & Sons, NY. Hybridoma culture supernatants containing monoclonal antibody from selected subclones were confirmed for imatinib binding by a competitive ELISA (example 11). […]

[5] = tested on: antibodies to imatinib; test: Immunoassay reactivity of the antibodies produced in accordance with the invention (polyclonal and monoclonal); settings: summary of Tables I and II
Description: Initial doses, bleedings and booster shots can be given according to accepted protocols for eliciting immune responses in animals, e.g., in a preferred embodiment mice received an initial dose of 100 ug immunogen/mouse, i.p. and two or more subsequent booster shots of between 50 and 100 ug immunogen/mouse over a six month period.
The ELISA method for determining IC50 values and cross-reactivity was performed with the microtiter plates that were sensitized with imatinib-BSA described in Examples 9. Analytes—imatinib and N-desmethyl imatinib were diluted in diH2O over a concentration range of 10 to 1,000,000 ng/mL. […] The assays were all performed by diluting the concentration of the antibodies in each of the wells to the titer determined in Example 10a. […] Following the incubation for color development, 50 of stop solution (1.5% sodium fluoride in di H2O) was added to each well to stop the color development and after 20 seconds of shaking the absorbance was determined at 650 nm (Molecular Devices Plate Reader). The amount of antibody in a well was proportional to the absorbance measured and inversely proportional to the amount of imatinib in the sample. The IC50's of imatinib and N-desmethyl imatinib were determined by constructing dose-response curves with the absorbance in the wells plotted versus analyte concentration in the wells. […]

[6] = polyclonal Bleed # 1, immunogen of example 6b
[7] = polyclonal Bleed # 2, immunogen of example 6b
[8] = polyclonal Bleed # 3, immunogen of example 6b
[9] = polyclonal Bleed # 4, immunogen of example 6a
[10] = polyclonal Bleed # 5, immunogen of example 6a

Row | SMILES | Cross-reactivity of competitive immunoassay [1, 6] | Cross-reactivity of competitive immunoassay [1, 7] | Cross-reactivity of competitive immunoassay [1, 8] | Cross-reactivity of competitive immunoassay [1, 9] | Cross-reactivity of competitive immunoassay [1, 10] | Cross-reactivity of competitive immunoassay [2] | Cross-reactivity of competitive immunoassay [3] | percent cross-reactivities relative to imatinib ([1]; measured with this pool of (polyclonal) antibodies) | percent cross-reactivities relative to imatinib [4] | reactivity with the antibodies [5]
1 | Cc1ccc(NC(=O)c2ccc(CN3CCN(C)CC3)cc2)cc1Nc1nccc(-c2cccnc2)n1 [Imatinib] | 100% | 100% | 100% | 100% | 100% | 100% | 100% |  |  | 
2 | Cc1ccc(NC(=O)c2ccc(CN3CCNCC3)cc2)cc1Nc1nccc(-c2cccnc2)n1 [N-desmethyl imatinib] | 1% | 5% | 2% | 7% | 1% | 2.7% | 3.2% | less than or equal to 7% | less than 4% | substantially non-reactive
